The subject of assay [1] is SARS-CoV-2-NLuc. Kind of assay: microbe, parasite or virus in culture. The class given is cell-based, SARS Coronavirus 2.
Assay [2] addresses recombinant SARS-CoV-2 Main protease (Mpro) (Severe acute respiratory syndrome coronavirus 2 (2019-nCoV) (SARS-CoV-2), UniProt P0DTD1). The experiment in a line: Cov Mpro Biochemical IC50 Assay. As to conditions: read-out: MPro IC50.
Setting [3] is: Severe acute respiratory syndrome coronavirus, 48 h, read-out: MPro EC50.
Setting [4] is: recombinant SARS-CoV-2 Mpro, fluorogenic peptide substrate.
[5] abbreviates: recombinant SARS-CoV-2 Mpro 7.5 nM, fluorogenic peptide substrate 40 μM.
Setting [6] is: Severe acute respiratory syndrome coronavirus, 48 h; read-out: MPro EC50.

Molecules are shown by their SMILES. Where two headings read alike, the source gives them in different places. Some results are limits rather than exact numbers.

Take `COc1ncc(-c2cccc(Cl)c2-c2ccc3c(=O)n(-c4cncc5ccccc45)c(=O)[nH]c3c2)cc1C#N` [Example 186]: the EC50 in assay [1] (setting [3]) is 50.7 nM. Also, the IC50 in assay [2] (setting [4]) stood at 112 nM.
Regarding `N#CCCn1c(=O)n(-c2cncc3ccccc23)c(=O)c2sc(-c3cc(F)c(F)cc3Cl)cc21` [Example 826], the EC50 in assay [1] (setting [3]) was determined as 23.9 nM. The IC50 in assay [2] (setting [5]) amounted to 8.26 nM.
Regarding `O=c1[nH]c2cc(-c3cccc4c3CCC4)sc2c(=O)n1-c1cncc2ccccc12` [Example 168, 6-(2,3-dihydro-1H-inden-4-yl)-3-(isoquinolin-4-yl)thieno[3,2-d]pyrimidine-2,4(1H,3H)-dione], the EC50 in assay [1] (setting [3]) was found to be 810 nM. The IC50 in assay [2] (setting [4]) came to 615 nM.
Take `O=c1[nH]c2cc(-c3c(Cl)cccc3-c3cnn4c3COCC4)sc2c(=O)n1-c1cncc2ccccc12` [Example 523]: in assay [1] (setting [3]), the EC50 came out at 5.79 nM. The IC50 in assay [2] (setting [5]) turned out to be 4.05 nM.
As for `COc1cc(-c2cc3[nH]c(=O)n(-c4cncc5ccccc45)c(=O)c3cc2OC)c(Cl)cc1F` (single isomer, unassigned) [Example 1054, 7-(2-chloro-4-fluoro-5-methoxyphenyl)-3-(isoquinolin-4-yl)-6-methoxyquinazoline-2,4(1H,3H)-dione], the EC50 in assay [1] (read-out: MPro EC50) amounted to 15.5 nM. Also, the IC50 in assay [2] (setting [5]) was found to be 34.6 nM.
As to `Cc1ccnc(Cl)c1-c1cc2[nH]c(=O)n(-c3cncc4ccccc34)c(=O)c2s1` [Example 290], the concentration for a half-maximal effect (EC50) in assay [1] (setting [3]) came to 484 nM. In addition, the IC50 in assay [2] (setting [4]) worked out at 159 nM.
The matching figures for `Cc1ccc(-c2cc3[nH]c(=O)n(-c4cncc5ccccc45)c(=O)c3s2)c(Cl)n1` [Example 289]: 119 nM and 41.7 nM.
`COc1ccc(Cl)c(-c2cnc3c(=O)n(-c4cncc5ccccc45)c(=O)[nH]c3c2)c1` [Example 219]: in assay [1] (setting [6]), the EC50 was found to be 181 nM. Moreover, the IC50 in assay [2] (setting [4]) is 5.06 nM.
Take `COc1ccc2cncc(-n3c(=O)[nH]c4cc(-c5ccccc5Cl)sc4c3=O)c2n1` [Example 449, 6-(2-chlorophenyl)-3-(2-methoxy-1,6-naphthyridin-8-yl)thieno[3,2-d]pyrimidine-2,4(1H,3H)-dione]: the EC50 in assay [1] (setting [3]) stood at 29.2 nM. Also, in assay [2] (setting [5]), the IC50 was 14 nM.
For `O=c1[nH]c2cc(-c3cccc(Cl)c3Cl)ccc2c(=O)n1-c1cncc2ccccc12` [Example 59], the 50% effective concentration (EC50) in assay [1] (setting [3]) worked out at 6010 nM. Further, the IC50 in assay [2] (setting [4]) was greater than 100000 nM.
The matching figures for `O=c1[nH]c2sc(-c3ccccc3)nc2c(=O)n1-c1cncc2ccccc12` [Example 158, 6-(isoquinolin-4-yl)-2-phenylthiazolo[5,4-d]pyrimidine-5,7(4H,6H)-dione]: 19100 nM and 133 nM.
In the case of `COc1cc(-c2cc3c(s2)c(=O)n(-c2cncc(Cl)c2)c(=O)n3CCC#N)c(Cl)cc1F` [Example 985], the EC50 in assay [1] (setting [3]) came out at 6.7 nM. The half-maximal inhibitory concentration (IC50) in assay [2] (setting [5]) is 2.11 nM.
With `COc1cc(-c2cc3c(s2)c(=O)n(-c2cncc4cnn(C5CC5)c24)c(=O)n3CCC#N)c(Cl)cc1F` [Example 998], the EC50 in assay [1] (setting [3]) was found to be 6.42 nM. In addition, the IC50 in assay [2] (setting [5]) was determined as 8.93 nM.
As to `O=c1[nH]c2cc(-c3ccccc3Cl)sc2c(=O)n1-c1cncc2cnn(CC(F)(F)F)c12` [Example 496], the EC50 in assay [1] (setting [3]) is 138 nM. Further, the concentration for half-maximal inhibition (IC50) in assay [2] (setting [5]) was 31.6 nM.
For `COc1cc(-c2cc3[nH]c(=O)n(-c4cncc5cc(C(C)(C)O)sc45)c(=O)c3s2)c(Cl)cc1F` [Example 513], the EC50 in assay [1] (setting [3]) is 45.9 nM. Moreover, in assay [2] (setting [5]), the IC50 worked out at 7.18 nM.
For `COc1cc(-c2cc3c(s2)c(=O)n(-c2cncc(N4CCOCC4)c2)c(=O)n3CCC#N)c(Cl)cc1F` [Example 873], the EC50 in assay [1] (setting [3]) was greater than 1000 nM. In addition, in assay [2] (setting [5]), the IC50 stood at 263 nM.
In the case of `Cc1ncccc1-c1ccc2c(=O)n(-c3cncc4ccccc34)c(=O)[nH]c2c1` [Example 63], the EC50 in assay [1] (setting [3]) is 8440 nM. Also, in assay [2] (setting [4]), the IC50 came out at 5850 nM.
Consider `COc1cc(F)cc(Cl)c1-c1ccc2c(=O)n(-c3cncc4ccccc34)c(=O)[nH]c2c1` [Example 651], for which the EC50 in assay [1] (setting [3]) was found to be 135 nM. Moreover, the IC50 in assay [2] (setting [5]) was 336 nM.
Consider `COc1cc(-c2cc3c(s2)c(=O)n(-c2cncc4ncn(C)c24)c(=O)n3CCC#N)c(Cl)cc1F` [Example 843], for which, in assay [1] (setting [3]), the EC50 turned out to be 13.2 nM. Also, the IC50 in assay [2] (setting [5]) was determined as 5.43 nM.
For `Cc1c(Cl)cccc1-c1cc2[nH]c(=O)n(-c3cncc4ccccc34)c(=O)c2s1` [Example 12], the EC50 in assay [1] (setting [3]) turned out to be 943 nM. The IC50 in assay [2] (setting [4]) is 7450 nM.
Turning to `COc1cc(-c2cc3[nH]c(=O)n(-c4cncc5ccccc45)c(=O)c3s2)c(C#N)cc1F` [Example 537], in assay [1] (setting [3]), the EC50 came to 19.2 nM. The IC50 in assay [2] (setting [5]) worked out at 6.15 nM.
Take `CC(C)Oc1cc(F)ccc1-c1cc2[nH]c(=O)n(-c3cncc4ccccc34)c(=O)c2s1` [Example 14]: in assay [1] (setting [3]), the EC50 stood at 79.9 nM. In assay [2] (setting [4]), the IC50 turned out to be 132 nM.
On to `COc1cc(-c2cc3c(s2)c(=O)n(-c2cncc4ccccc24)c(=O)n3CCC#N)c(C#N)cc1F` (single isomer, unassigned) [Example 968, 2-(1-(2-cyanoethyl)-3-(isoquinolin-4-yl)-2,4-dioxo-1,2,3,4-tetrahydrothieno[3,2-d]pyrimidin-6-yl)-5-fluoro-4-methoxybenzonitrile], for which the concentration giving a half-maximal response (EC50) in assay [1] (read-out: MPro EC50) worked out at 96 nM. Further, the IC50 in assay [2] (setting [5]) came out at 89.1 nM.
Consider `COCCNc1ccc2cncc(-n3c(=O)[nH]c4cc(-c5ccccc5Cl)sc4c3=O)c2c1` [Example 403], for which, in assay [1] (setting [3]), the EC50 was 11.1 nM. For the same compound, the IC50 in assay [2] (setting [5]) was determined as 6.9 nM.
As to `O=c1[nH]c2cc(-c3c(Cl)cccc3OCc3cscn3)ccc2c(=O)n1-c1cncc2ccccc12` [Example 86, 7-[2-chloro-6-(thiazol-4-ylmethoxy)phenyl]-3-(4-isoquinolyl)-1H-quinazoline-2,4-dione], in assay [1] (read-out: MPro EC50), the EC50 was determined as 144 nM. For the same compound, the half-inhibitory concentration (IC50) in assay [2] (setting [4]) turned out to be 112 nM.
On to `COc1cc(-c2cc3[nH]c(=O)n(-c4cncc5ncc(C)n45)c(=O)c3s2)c(Cl)cc1F` [Example 1082], for which the EC50 in assay [1] (setting [3]) was 91.1 nM. Moreover, the IC50 in assay [2] (setting [5]) stood at 18 nM.
Consider `COc1cc(-c2cc3[nH]c(=O)n(-c4cncc5cnn(C)c45)c(=O)c3s2)c(C#N)cc1F` [Example 751, 5-fluoro-4-methoxy-2-[3-(1-methylpyrazolo[4,3-c]pyridin-7-yl)-2,4-dioxo-1H-thieno[3,2-d]pyrimidin-6-yl]benzonitrile], for which the EC50 in assay [1] (setting [3]) turned out to be 216 nM. For the same compound, the IC50 in assay [2] (setting [5]) turned out to be 11.1 nM.
For `COc1cnc(Cl)c(-c2cc3c(s2)c(=O)n(-c2cncc4cccc(F)c24)c(=O)n3CCC#N)c1` (single isomer, unassigned) [Example 1095, 3-(6-(2-chloro-5-methoxypyridin-3-yl)-3-(5-fluoroisoquinolin-4-yl)-2,4-dioxo-3,4-dihydrothieno[3,2-d]pyrimidin-1(2H)-yl)propanenitrile], the EC50 in assay [1] (read-out: MPro EC50) came out at 123 nM. In assay [2] (setting [5]), the IC50 was found to be 55.6 nM.
As for `Cc1cc(C)c(-c2cc3[nH]c(=O)n(-c4cncc5ccccc45)c(=O)c3s2)cc1C#N` [Example 648], in assay [1] (setting [3]), the EC50 stood at 188 nM. Further, in assay [2] (setting [5]), the IC50 was 99.5 nM.
On to `COc1ccc(C#N)c(-c2cc3[nH]c(=O)n(-c4cncc5ccc(F)cc45)c(=O)c3s2)c1` [Example 589], for which the EC50 in assay [1] (setting [3]) worked out at 23.7 nM. Besides, the IC50 in assay [2] (setting [5]) worked out at 5.01 nM.
For `O=C1NCCc2c1cccc2-c1cccc(Cl)c1-c1ccc2c(=O)n(-c3cncc4ccccc34)c(=O)[nH]c2c1` [Example 194], in assay [1] (setting [3]), the EC50 was 20.6 nM. The IC50 in assay [2] (setting [4]) was less than 2.54 nM.
For `Cn1ncc2cncc(-n3c(=O)c4sc(-c5ccc(Cl)cc5C#N)cc4n(CCC#N)c3=O)c21` [Example 824], the EC50 in assay [1] (setting [6]) turned out to be 79.9 nM. Further, the IC50 in assay [2] (setting [5]) was found to be 22.5 nM.

These data come from patent publication US20240116946A1 (Gilead Sciences, Inc., priority 2022, published 2024).
